# Results as given in patent publication US10624895B2, “Methods of sensitizing a patient with glioma to a therapeutic agent by administering small hairpin RNA targeting PDZ-RHOGEF” (THE TRANSLATIONAL GENOMICS RESEARCH INSTITUTE, priority 2016, dated 2020).
# Experiments:
# [1] = tested on: Rac1; assay: Rac1 activation assay after PPF; assay type: cell-based, human; details: T98G cells, 5 μM PPF 1 hour, then 10% FBS
# Procedure: FIGS. 27A and 27B depict that PPF suppresses GBM cell invasion and Rac1 activation. FIG. 27A—T98G, GBM10, and GBM43 glioma cells were treated with 5 μM PPF and invasion was assayed over 24 hours utilizing a Matrigel® invasion assay, *p<0.05. FIG. 27B—T98G glioma cells were serum starved, pre-incubated with 5 μM PPF or vehicle for 1 hour, and then stimulated with 10% FBS for 2-10 mins. Cell lysates were harvested and equal concentrations of protein were assessed for Rac1 activation.
# Referring now to FIGS. 27A and 27B: The inventors next examined whether PPF inhibited TROY dependent glioma cell invasion. […] Briefly, 5.0×10^5 cells glioma cells were seeded in 100-mm diameter culture dishes and incubated overnight at 37° C. Subsequently, cells were serum starved for 16 hours at 37° C. Cells were then harvested, re-suspended in growth factor reduced Matrigel® (Becton Dickinson) (1.0×10^5 cells/50 μL), added in triplicates to collagen-coated transwell chambers, and allowed to invade through Matrigel® in presence of 10% FBS and/or 5 μM PPF. After incubation for 24 hours at 37° C. non-invaded cells were scrapped off the upper side of the membrane and cells invaded to the other side of the membrane were fixed with 4% paraformaldehyde (PFA) (Affymetrix) and stained with DAPI (Invitrogen). Nuclei of invaded cells were counted in five high power fields (HPF) with a 20× objective.
# [2] = tested on: T98G cells; assay: EGF-stimulated transwell migration assay; assay type: cell-based, human; details: serum starved T98G, PPF one hour prior to EGF (10 ng/mL), 24 hours
# Procedure: FIG. 33 depicts the impact of PPF treatment on EGF-stimulated glioma cell migration. Serum starved T98G cells were treated with PPF at various concentrations one hour prior to EGF addition (10 ng/mL). Cell migration was assessed using the transwell migration assay after 24 hours. *p<0.001; **p<0.01.
# Thus, the capacity of TROY to stimulate glioma cell invasion and increase TMZ and IR resistance could rely on the formation of a TROY-EGFR signaling complex. This association could activate, or potentiate, shared signaling pathways survival pathways as well as activate distinct TROY signaling pathways that mediate TROY receptor specific functional activities. Therefore, therapeutic approaches targeting TROY and/or both receptors may yield increased therapeutic benefit.
# [3] = tested on: TROY; assay: Western blot of TROY expression after PPF treatment; assay type: cell-based, human
# Procedure: FIG. 24A—a Western blot analysis of TROY expression in T98G cells. Cells were treated with PPF at indicated concentrations for 6 hrs, lysed, and cell lysates immunoblotted with anti-TROY antibody. Immunoblotting of α-Tubulin in cell lysates is included as a loading control. FIG. 24B—Western blot analysis of TROY expression in T98G, GBM43, and GBM10 cells. Cells were treated with PPF at indicated concentrations for 24 hrs, lysed, and cell lysates immunoblotted with anti-TROY and α-Tubulin antibodies. FIG. 24C—Western Blot analysis of TROY expression in GBM10 and GBM43 primary glioma cells. Cells were treated with 5 μM PPF, lysed at the indicated time-points, and the lysates immunoblotted with an anti-TROY antibody. Immunoblotting of β-Actin in cell lysates is included as a loading control. FIG. […]—Western Blot analysis of T98G, GBM10 and GBM43 glioma cells treated with 5 μM PPF for 24 hours. Lysates were immunoblotted with anti-TROY, anti-TNFR1, anti-EGFR, and β-Actin antibodies.
# Referring now to FIGS. 24A, 24B, 24C, and 24D: The inventors investigated if PPF could be utilized pharmacologically to decrease TROY expression in GBM cells. The long-term established cell line T98G was first utilized to test the efficacy of PPF. Cells were treated with increasing concentration of PPF, 1 to 20 μM lysed, and TROY expression assessed by immunobloting. Briefly, monolayers of cells were washed in phosphate-buffered saline (PBS) containing 1 mM phenylmethylsulfonylfluoride and 1 mM sodium orthovanadate and then lysed in 2×SDS sample buffer containing protease and phosphatase inhibitors. Protein concentrations were determined using the BCA Assay (Pierce). Thirty micrograms of total protein was loaded per lane and separated by SDS-PAGE. After transfer, the nitrocellulose membrane (Invitrogen) was blocked with either 5% nonfat-milk or 5% BSA in TB ST before addition of primary antibodies and followed with peroxidase-conjugated secondary antibody (Promega). Protein bands were detected using SuperSignal® Chemiluminescent Substrate (Pierce) with a UVP BioSpectrum 500 Imaging System.
# [4] = tested on: AKT; assay: Immunoblot of AKT activation after PPF; assay type: cell-based, human; details: T98G and GBM43 cells treated with PPF
# Procedure: FIGS. 26A, 26B, and 26C depict that PPF sensitizes GBM cells to TMZ and radiotherapy. FIG. 26A—A clonogenic assay was used to assess T98G and GBM43 cells survival after TMZ and radiation treatment. Cells were pre-treated with 5 μM PPF for 24 hours, and then either treated with 250 μM TMZ for 24 hours or exposed to 2 Gy radiation. Graph depicts the surviving fraction in the treated cells compared to vehicle (VC) treated or non-treated (NT) cells, **p<0.01. FIG. 26B—T98G glioma cells were treated with vehicle, PPF (5 μM) TMZ (250 μM) and PPF in combination with TMZ. TMZ-induced apoptosis was assayed by immunoblot analysis of cell lysates with an antibody to cleaved PARP. Immunoblotting for α-Tubulin was included as a loading control. FIG. 26C—T98G, GBM10, and GBM43 cells were treated with PPF ([…], and then immunoblotted to assess the activation of AKT and NF-κB. Immunoblotting for β-Actin is included as a loading control.
# Referring now to FIGS. 26A, 26B, and 26C: Knockdown of TROY expression with shRNA decreases TMZ resistance in GBM cells in vitro (See Reference 42). […] Following combination therapy, cells were trypsinized, counted, and plated in a 6-well culture dish at densities of 100, 250, and 500 cells per well in triplicate. Cells were incubated for 12 days then fixed, stained with 0.5% crystal violet solution, and counted manually by blinded observers. […]
# [5] = tested on: microglia; details: by decreasing TROY expression; cited from earlier work
smiles,measurement,setting,value
"CCCn1cnc2c1c(=O)n(CCCCC(C)=O)c(=O)n2C [PPF, 3-methyl-1-(5-oxohexyl)-7-propyl-3,7-dihydro-1H-purine-2,6-dione]",Rac1 activation,[1],inhibited Rac1 activation
same,EGF-stimulated glioma cell migration,[2],reduced EGF-stimulated glioma cell migration
same,TROY expression over time,"[3]; GBM10 and GBM43 cells, 5 μM PPF, varying lengths of time",decreased in a time-dependent manner
same,TROY expression,"[3]; T98G cells, 1 μM PPF",significant suppression
same,TROY expression,"[3]; T98G cells, PPF 1 to 20 μM, 6 hrs",decreased in concentration dependent manner
same,TROY expression,"[3]; T98G, GBM10, GBM43 cells, 5 μM PPF, 24 hrs",effective in lowering TROY expression
same,AKT phosphorylation,[4],effectively decreased
same,migration of microglia,[5],inhibit the migration of microglia
